What all share (assay): NCI tumour cell line growth inhibition, 48 h
Assay [1] concerns A549.
The subject of assay [2] is CCRF-CEM.
Assay [3] concerns COLO 205.
In assay [4] the test system is HOP-62.
In assay [5] the test system is HT-29.
For assay [6], the system named is IGROV-1.
Assay [7] relates to K562.
Assay [8] relates to KM12.
Assay [9] deals with LOX IMVI.
Assay [10] concerns MOLT-4.
Assay [11] deals with OVCAR-8.
Assay [12] has as its system RPMI-8226.
Assay [13] relates to SF-268.
Assay [14] relates to SF-539.
The subject of assay [15] is SK-OV-3.
Assay [16] has as its system SN12C.
In assay [17] the test system is SNB-19.
Assay [18] has as its system UACC-257.
For assay [19], the system named is UACC-62.
Assay [20] has as its system UO-31.

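Each compound was tested at five concentrations against cells in 96-well plates for 48 hours. At the GI50, growth is halved.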 The source made the active and inactive calls. Rule as the data show it: active = GI50 up to about 1.1 µM and inactive = higher.

On to `COC1/C=C/C=C(/C)Cc2cc(O)c(Cl)c(c2)N(C)C(=O)CC(OC(=O)C(C)C)C2(C)OC2C(C)C2CC1(O)NC(=O)O2` (stereo not given), for which the GI50 was < 0.01 µM (active) in assay [1]; 0.394 µM (active) in assay [2]; < 0.01 µM (active) in assay [3]; 0.0673 µM (active) in [4]; < 0.01 µM (active) in assay [5]; < 0.01 µM (active) in assay [6]. Also, the GI50 in assay [7], in [8], in [9], in assay [10], in assay [11] and in assay [12] was < 0.01 µM (active) throughout. In addition, the GI50 in assay [13] is < 0.01 µM (active); in [14], < 0.01 µM (active); in [15], < 0.01 µM (active); in assay [16], < 0.01 µM (active); in assay [17], < 0.01 µM (active); in [18] it was 4.89 µM (inactive). Also, the GI50 in assay [19] and in [20] was < 0.01 µM (active) throughout.

In the case of `CC(C)N/C(N)=N/C#N`, the GI50 in assay [1], in [2], in assay [3], in assay [4], in [5] and in assay [6] was > 100 µM (inactive) throughout. The GI50 in [7], in assay [8], in assay [9], in assay [10], in assay [11] and in assay [12] was > 100 µM (inactive) throughout. For the same compound, the GI50 in assay [13], in assay [14], in assay [15], in [16], in [17] and in assay [18] was > 100 µM (inactive) each time. The GI50 in assay [19] and in assay [20] was > 100 µM (inactive) each time.

Turning to `O=[N+]([O-])c1cnccc1-n1nnc2ccccc21`, the GI50 in [1] was 25.1 µM (inactive); in assay [2] it was 19.8 µM (inactive); in [3], 17.9 µM (inactive); in assay [4], 25.1 µM (inactive); in assay [5], 28.3 µM (inactive); in assay [6], 13.9 µM (inactive). The GI50 in [7] is 20.7 µM (inactive); in assay [8] it was 17.2 µM (inactive); in assay [9], 12.6 µM (inactive); in assay [10] it was > 48 µM (inactive); in assay [11], 17.7 µM (inactive); in assay [12], 32.9 µM (inactive). For the same compound, the GI50 in assay [13] is 18.8 µM (inactive); in [14], 20.5 µM (inactive); in assay [15], 23.3 µM (inactive); in [16] it was 16 µM (inactive); in assay [17], 30.6 µM (inactive); in [18], 14.7 µM (inactive). In addition, the GI50 in assay [19] was 13.8 µM (inactive); in assay [20], 19.4 µM (inactive).

As to `Cc1ccccc1NC(=O)C(=O)C(C1OC(=O)c2ccccc21)[N+](=O)[O-]` (stereo not given), the GI50 in assay [1] is > 100 µM (inactive); in assay [2], 68.7 µM (inactive); in assay [3], > 100 µM (inactive); in [4], > 100 µM (inactive); in [5], > 100 µM (inactive); in assay [6] it was > 100 µM (inactive). Further, the GI50 in [7], in assay [8], in assay [9], in [10], in assay [11] and in [12] was > 100 µM (inactive) throughout. Also, the GI50 in assay [13], in [14], in assay [15], in assay [16], in assay [17] and in [18] was > 100 µM (inactive) each time. In addition, the GI50 in assay [19] and in assay [20] was > 100 µM (inactive) in each case.

For `BrC1=CN2C[n+]3cc(Br)c4ccccc4c3N=C2c2ccccc21`, the GI50 in [1] was 46.3 µM (inactive); in assay [2], 10.7 µM (inactive); in [3], 10.3 µM (inactive); in assay [4] it was 1.4 µM (inactive); in assay [5], 11.8 µM (inactive); in assay [6], 7.05 µM (inactive). Also, the GI50 in assay [7] was 6.34 µM (inactive); in assay [8] it was 3.65 µM (inactive); in assay [9], 12.4 µM (inactive); in assay [10], 11 µM (inactive); in assay [11], 16.7 µM (inactive); in assay [12], 10.8 µM (inactive). In addition, the GI50 in assay [13] is 8.55 µM (inactive); in assay [14], 11.7 µM (inactive); in [15] it was 22 µM (inactive); in [16] it was 19.7 µM (inactive); in assay [17], 6.67 µM (inactive); in assay [18], 22 µM (inactive). Moreover, the GI50 was 5.58 µM (inactive) in assay [19] and 34.9 µM (inactive) in assay [20].

Take `S=C(NCCCCCCNC(=S)Nc1c2ccccc2nc2ccccc12)Nc1c2ccccc2nc2ccccc12`: the GI50 in assay [1] is 87.5 µM (inactive); in assay [2] it was 63 µM (inactive); in assay [3], 50.5 µM (inactive); in [4], > 89.3 µM (inactive); in [5], 54.5 µM (inactive); in assay [6], > 81.5 µM (inactive). For the same compound, the GI50 was 51.9 µM (inactive) in assay [7]; 10.9 µM (inactive) in assay [8]; 72.4 µM (inactive) in assay [9]; 32.4 µM (inactive) in assay [10]; 89.9 µM (inactive) in [11]; 95.5 µM (inactive) in [12]. For the same compound, the GI50 in assay [13] is > 100 µM (inactive); in assay [14] it was 70.1 µM (inactive); in assay [15] it was > 100 µM (inactive); in [16] it was > 83.8 µM (inactive); in [17] it was > 83 µM (inactive); in [18], > 90.8 µM (inactive). Moreover, the GI50 in assay [19] was > 100 µM (inactive); in assay [20] it was > 86.3 µM (inactive).

As for `O=C(O)C1CCC(=O)N1S(=O)(=O)c1ccccc1` (stereo not given), the GI50 in [1], in assay [2], in assay [3], in [4], in assay [5] and in assay [6] was > 100 µM (inactive) in each case. For the same compound, the GI50 in assay [7], in assay [8], in [9], in [10], in assay [11] and in [12] was > 100 µM (inactive) throughout. Moreover, the GI50 in assay [13] was > 96.2 µM (inactive); in assay [14], > 100 µM (inactive); in assay [15] it was > 100 µM (inactive); in [16] it was > 100 µM (inactive); in assay [17] it was > 100 µM (inactive); in assay [18] it was > 100 µM (inactive). Moreover, the GI50 in assay [19] and in [20] was > 100 µM (inactive) each time.

For the compound `CO/N=C(\C)c1ccc(Nc2nc3ccccc3c3occc23)cc1`, the GI50 was 17.3 µM (inactive) in assay [1]; 16 µM (inactive) in assay [2]; 14.5 µM (inactive) in assay [3]; 16 µM (inactive) in assay [4]; 3.03 µM (inactive) in [5]; 16.1 µM (inactive) in assay [6]. The GI50 in [7] was 20.2 µM (inactive); in assay [8], 17.6 µM (inactive); in [9], 15.3 µM (inactive); in [10], 17.1 µM (inactive); in assay [11] it was 16.7 µM (inactive); in assay [12], 16.9 µM (inactive). Besides, the GI50 is 16.4 µM (inactive) in assay [13]; 14.2 µM (inactive) in assay [14]; 15.9 µM (inactive) in assay [15]; 15.2 µM (inactive) in assay [16]; 15.5 µM (inactive) in assay [17]; 17.3 µM (inactive) in [18]. Further, the GI50 in [19] was 12.1 µM (inactive); in [20], 18.9 µM (inactive).

On to `CSCSCC(N)CO.Cc1[nH]c(=O)[nH]c(=O)c1/C=C/C(=O)O`, for which the GI50 in assay [1], in [2], in assay [3], in [4], in assay [5] and in assay [6] was > 625 µM (inactive) in each case. For the same compound, the GI50 in assay [7] is > 625 µM (inactive); in [8], > 625 µM (inactive); in [9] it was > 625 µM (inactive); in assay [10] it was 590 µM (inactive); in assay [11], 492 µM (inactive); in assay [12], > 625 µM (inactive). In addition, the GI50 in assay [13], in assay [14], in [15], in [16], in assay [17] and in [18] was > 625 µM (inactive) throughout. Moreover, the GI50 in assay [19] and in [20] was > 625 µM (inactive) each time.

As for `COc1ccccc1-c1cc(O)c2c(C)ccnc2n1`, the GI50 in [1] is 43.7 µM (inactive); in [2], 35.6 µM (inactive); in assay [3], 19.5 µM (inactive); in assay [4], 30.1 µM (inactive); in assay [5] it was 33.1 µM (inactive); in [6], > 100 µM (inactive). Moreover, the GI50 in assay [7] is 14.2 µM (inactive); in assay [8], 27.7 µM (inactive); in assay [9] it was 37.9 µM (inactive); in [10], 31.7 µM (inactive); in [11], 43.6 µM (inactive); in assay [12], 59.8 µM (inactive). The GI50 in assay [13] is 45.5 µM (inactive); in assay [14] it was 30.8 µM (inactive); in assay [15], 23 µM (inactive); in assay [16], 41 µM (inactive); in assay [17], 26.3 µM (inactive); in [18], 47.9 µM (inactive). In addition, the values for the GI50 in assay [19] and in [20] were 42.9 µM (inactive) and 33 µM (inactive), respectively.

(Values after ChEMBL document CHEMBL1201862, “PubChem BioAssay data set” (2004).)
